Data published in ChEMBL document CHEMBL6153085, “Discovery of N-(1,2,4-Thiadiazol-5-yl)benzo[b]oxepine-4-carboxamide Derivatives as Novel Antiresistance Androgen Receptor Antagonists” (J Med Chem, 2025).

How the values were obtained:
[1] = Antiproliferative activity against mouse 3T3 cells incubated for 3 days by MTT assay; conditions: NIH3T3 cells
[2] = tested on: LNCaP; assay: Antiproliferative activity against human LNCaP cells assessed as inhibition of cell proliferation incubated for 3 days by MTT assay; conditions: 72 h
[3] = Antiproliferative activity against human LNCaP-EnzR cells assessed as inhibition of cell proliferation incubated for 3 days by MTT assay; conditions: 72 h
[4] = target: T1, Androgen receptor (Homo sapiens, UniProt P10275); assay: Antagonist activity at Androgen receptor in human LNCaP cells expressing ARR2PB-eGFP incubated for 3 days by fluorescence based assay
T1 sequence (P10275 whole entry): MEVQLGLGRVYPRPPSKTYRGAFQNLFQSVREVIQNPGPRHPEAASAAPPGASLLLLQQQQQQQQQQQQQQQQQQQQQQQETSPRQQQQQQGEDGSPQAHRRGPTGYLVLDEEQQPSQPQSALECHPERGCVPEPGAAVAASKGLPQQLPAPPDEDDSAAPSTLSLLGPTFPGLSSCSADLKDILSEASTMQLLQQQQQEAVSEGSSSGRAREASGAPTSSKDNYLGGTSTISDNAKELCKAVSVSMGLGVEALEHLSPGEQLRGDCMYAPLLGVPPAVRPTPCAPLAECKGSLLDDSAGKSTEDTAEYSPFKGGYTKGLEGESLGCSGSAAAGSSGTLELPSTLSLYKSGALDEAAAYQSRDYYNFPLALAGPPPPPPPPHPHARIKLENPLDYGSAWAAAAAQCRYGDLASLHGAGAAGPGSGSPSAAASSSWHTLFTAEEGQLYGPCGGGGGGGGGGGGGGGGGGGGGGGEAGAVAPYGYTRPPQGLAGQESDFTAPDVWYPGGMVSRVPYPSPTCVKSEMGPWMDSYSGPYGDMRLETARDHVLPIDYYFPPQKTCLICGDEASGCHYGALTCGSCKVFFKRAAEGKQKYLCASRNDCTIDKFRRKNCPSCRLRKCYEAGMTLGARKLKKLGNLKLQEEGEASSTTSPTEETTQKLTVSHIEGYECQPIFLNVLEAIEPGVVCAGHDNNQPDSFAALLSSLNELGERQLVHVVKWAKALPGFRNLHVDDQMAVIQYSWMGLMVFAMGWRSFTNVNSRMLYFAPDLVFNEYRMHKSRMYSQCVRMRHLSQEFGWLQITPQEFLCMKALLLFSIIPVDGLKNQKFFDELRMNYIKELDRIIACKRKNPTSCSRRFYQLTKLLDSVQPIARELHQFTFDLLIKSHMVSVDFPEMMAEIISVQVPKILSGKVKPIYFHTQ

| IC50 [2] | IC50 [4] | SMILES | IC50 at 3 days [1] | IC50 [3] |
| --- | --- | --- | --- | --- |
| 15.8 µM |  | CNC(=O)c1ccc(N2C(=S)N(c3ccc(C#N)c(C(F)(F)F)c3)C(=O)C2(C)C)cc1F [ENZALUTAMIDE] | > 50 µM | > 50 µM |
|  | 16 µM | CC(=O)Cc1nsc(NC(=O)/C=C/c2ccc(C(F)(F)F)cc2)n1 |  |  |
